Source: US20220087996A1, “Histone acetylase p300 inhibitor and use thereof” (HINOVA PHARMACEUTICALS INC., priority 2018, published 2022)
Read-outs that look alike come from different tables or passages of the source.

What was measured:
histone acetylase p300 = target: T1, histone acetylase p300 (Homo sapiens, UniProt Q09472); experiment: Inhibitory activity on histone acetylase p300 (radioisotope FlashPlate); assay type: biochemical; conditions: enzyme 0.2 nM, peptide substrate 600 nM, [3H]-Ac-CoA 250 nM; read-out: IC50 against P300
T1 construct: purchased BPS
Source text: Using the radioisotope FlashPlate technology, the half inhibitory concentration (IC50) of the compound according to the present invention was detected against histone acetylase p300 (purchased from BPS). […] Under the catalysis of histone acetylase p300, [3H]—Ac group in the isotope-labeled [3H]-Ac-CoA was transferred to the biotinylated histone polypeptide substrate (purchased from GL Biochem Ltd.), and then the biotinylated histone peptide substrate bound to the streptavidin on the FlashPlate board, so that the isotope was close enough to the FlashPlate board. Thus, the radiation energy of isotope could convert the scintillation fluid coated on the FlashPlate board into photons, that was able to be detected. Detailed procedures were as follows:
• 1× reaction buffer: 50 mM Tris-HCl, pH 7.5; 0.01% Tween-20 • Reaction stop solution: 750 μM Ac-CoA solution
Each test compound was dissolved into 10 mM with 100% DMSO, and then each compound was diluted to the desired concentration in Echo 384-well plate. […] 200 nl of 100% DMSO was transferred into the well as the negative control.
p300 was added to 1× reaction buffer to form a 2× enzyme solution (the final concentration of enzyme being 0.2 nM).
The peptide substrate and [3H]-Ac-CoA were added to the 1-fold reaction buffer, to form a 2-fold substrate solution (the final concentration of the substrate being 600 nM and 250 nM, respectively).
10 μl of 2-fold enzyme solution was added to the wells of 384-well reaction plate. […] The plate was centrifuged at 1000 rpm for 1 min and incubated at room temperature for 15 min.
10 μl of 2-fold substrate solution was added to each well of 384-well reaction plate. The plate was centrifuged at 1000 rpm for 1 min, and then reacted at 25° C. for 60 min.
10 μl of reaction stop solution was added to each well of 384-well reaction plate to stop the reaction. 25 μL solution was collected from each well of the test plate and transferred to Flashplate, that was placed at room temperature for 1 h. Then, Flashplate plate was washed three times with 0.1% Tween-20 solution.
4) Reading Data with MicroBeta 2
The data were copied from Microbeta 2. […] The maximum value is the conversion rate of the control DMSO, and the minimum value is the conversion rate of the control without enzyme activity.
The data were imported into Graph Pad Prism5, and the formula “log(inhibitor) vs. response−Variable slope” was used to perform curve fitting, to obtain the half inhibitory concentration (IC50).

CWR22RV1 cells = experiment: Inhibition of proliferation of CWR22RV1 cells (CCK-8); assay type: cell-based, human; conditions: Homo sapiens, CWR22Rv1, 144 h, 6 days culture
Procedure, shortened: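 Proliferation read-out was CCK-8 absorbance at 450 nm after 2.5 h, following 6-day culture with compound. Each well held 1500 CWR22RV1 cells; the 3-fold, 9-point series started at a final 10 μM in 0.1% DMSO. Dose-response-inhibition fit gave the IC50.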

VCAP = experiment: Inhibition of proliferation of VCAP cells; assay type: cell-based; conditions: Homo sapiens; Prostate cancer cell line VCAP; read-out: IC50 against VCAP
Protocol: (§1) 1) CWR22RV1 cells were subcultured in cell culture medium, and the cells in good growth condition were seeded in a 96-well plate, 80 μL for each well, and the cell number in each well was 1500. The plate was incubated overnight in a 37° C., 5% CO2 cell incubator. 2) The drug was prepared as 30 mM stock solution with dimethyl sulfoxide (DMSO). Prior to use, the stock solution was diluted 3 times with DMSO, and then further diluted as 3-fold gradient to obtain 9 concentration gradients. Then, each concentration of compound was diluted 200 times with the culture solution (ensuring that the DMSO concentration in the culture system was 0.1%), and two replicate wells were set for each concentration. 20 μL of diluted compound solution was added to the cell culture well (with final concentrations of 10 μM, 3.3 μM. 1.1 μM . . . ), and the plate was gently shaken to mix. In addition, 3 negative control wells containing only cells and 3 blank control wells containing only culture medium were included (6 wells were each added 20 μL DMSO diluted 200 times with culture medium). 2. Result detection: (1) After culturing for 6 days, 10 μL CCK-8 was added to each well, and the plate was continually cultured in a 37° C., 5% CO2 cell incubator for 2.5 h. (2) The absorbance (OD value) was detected at 450 nm using a multifunctional microplate reader. (3) The data were analyzed by Dose-response-inhibition equation in the software GraphPad Prism6, and the IC50 value was obtained.
(§2) Using the same method as Experimental example 2, CWR22RV1 cells were replaced with tumor cells in Table 3, and the IC50 (nM) of the compound according to the present invention against the activity of these tumor cells was tested and calculated.

LNCAP-AR = experiment: Inhibition of proliferation of LNCAP-AR cells; assay type: cell-based; conditions: Prostate cancer cell line LNCAP-AR; read-out: IC50 against LNCAP-AR
Protocol: as §1, §2

LNCAP = experiment: Inhibition of proliferation of LNCAP cells; assay type: cell-based; conditions: Homo sapiens; Prostate cancer cell line LNCAP; read-out: IC50 against LNCAP
Protocol: as §1, §2

MOLT-4 = experiment: Inhibition of proliferation of MOLT-4 cells; assay type: cell-based; conditions: Homo sapiens; Leukemia cell line MOLT-4; read-out: IC50 against MOLT-4
Protocol: as §1, §2

HEL = experiment: Inhibition of proliferation of HEL cells; assay type: cell-based; conditions: Homo sapiens; Leukemia cell line HEL; read-out: IC50 against HEL
Protocol: as §1, §2

OCI-AML3 = experiment: Inhibition of proliferation of OCI-AML3 cells; assay type: cell-based; conditions: Homo sapiens, OCI-AML-3; Leukemia cell line OCI-AML3; read-out: IC50 against OCI-AML3
Protocol: as §1, §2

RL = experiment: Inhibition of proliferation of RL cells; assay type: cell-based; conditions: Homo sapiens; Lymphoma cell line RL; read-out: IC50 against RL
Protocol: as §1, §2

MLMA = experiment: Inhibition of proliferation of MLMA cells; assay type: cell-based; conditions: Lymphoma cell line MLMA; read-out: IC50 against MLMA
Protocol: as §1, §2

BT-474 = experiment: Inhibition of proliferation of BT-474 cells; assay type: cell-based; conditions: Homo sapiens; Breast cancer cell line BT-474; read-out: IC50 against BT-474
Protocol: as §1, §2

DU4475 = experiment: Inhibition of proliferation of DU4475 cells; assay type: cell-based; conditions: Homo sapiens, DU-4475; Breast cancer cell line DU4475; read-out: IC50 against DU4475
Protocol: as §1, §2

KMS-20 = experiment: Inhibition of proliferation of KMS-20 cells; assay type: cell-based; conditions: Multiple myeloma cell line KMS-20; read-out: IC50 against KMS-20
Protocol: as §1, §2

NCI-H929 = experiment: Inhibition of proliferation of NCI-H929 cells; assay type: cell-based; conditions: Homo sapiens; Multiple myeloma cell line NCI-H929; read-out: IC50 against NCI-H929
Protocol: as §1, §2

OPM-2 = experiment: Inhibition of proliferation of OPM-2 cells; assay type: cell-based; conditions: Homo sapiens; Multiple myeloma cell line OPM-2; read-out: IC50 against OPM-2
Protocol: as §1, §2

[1] = read-out: IC50 against CWR22RV1 cells
[2] = read-out: IC50 against CWR22RV1 cells (text)

T1 sequence (Q09472 whole entry): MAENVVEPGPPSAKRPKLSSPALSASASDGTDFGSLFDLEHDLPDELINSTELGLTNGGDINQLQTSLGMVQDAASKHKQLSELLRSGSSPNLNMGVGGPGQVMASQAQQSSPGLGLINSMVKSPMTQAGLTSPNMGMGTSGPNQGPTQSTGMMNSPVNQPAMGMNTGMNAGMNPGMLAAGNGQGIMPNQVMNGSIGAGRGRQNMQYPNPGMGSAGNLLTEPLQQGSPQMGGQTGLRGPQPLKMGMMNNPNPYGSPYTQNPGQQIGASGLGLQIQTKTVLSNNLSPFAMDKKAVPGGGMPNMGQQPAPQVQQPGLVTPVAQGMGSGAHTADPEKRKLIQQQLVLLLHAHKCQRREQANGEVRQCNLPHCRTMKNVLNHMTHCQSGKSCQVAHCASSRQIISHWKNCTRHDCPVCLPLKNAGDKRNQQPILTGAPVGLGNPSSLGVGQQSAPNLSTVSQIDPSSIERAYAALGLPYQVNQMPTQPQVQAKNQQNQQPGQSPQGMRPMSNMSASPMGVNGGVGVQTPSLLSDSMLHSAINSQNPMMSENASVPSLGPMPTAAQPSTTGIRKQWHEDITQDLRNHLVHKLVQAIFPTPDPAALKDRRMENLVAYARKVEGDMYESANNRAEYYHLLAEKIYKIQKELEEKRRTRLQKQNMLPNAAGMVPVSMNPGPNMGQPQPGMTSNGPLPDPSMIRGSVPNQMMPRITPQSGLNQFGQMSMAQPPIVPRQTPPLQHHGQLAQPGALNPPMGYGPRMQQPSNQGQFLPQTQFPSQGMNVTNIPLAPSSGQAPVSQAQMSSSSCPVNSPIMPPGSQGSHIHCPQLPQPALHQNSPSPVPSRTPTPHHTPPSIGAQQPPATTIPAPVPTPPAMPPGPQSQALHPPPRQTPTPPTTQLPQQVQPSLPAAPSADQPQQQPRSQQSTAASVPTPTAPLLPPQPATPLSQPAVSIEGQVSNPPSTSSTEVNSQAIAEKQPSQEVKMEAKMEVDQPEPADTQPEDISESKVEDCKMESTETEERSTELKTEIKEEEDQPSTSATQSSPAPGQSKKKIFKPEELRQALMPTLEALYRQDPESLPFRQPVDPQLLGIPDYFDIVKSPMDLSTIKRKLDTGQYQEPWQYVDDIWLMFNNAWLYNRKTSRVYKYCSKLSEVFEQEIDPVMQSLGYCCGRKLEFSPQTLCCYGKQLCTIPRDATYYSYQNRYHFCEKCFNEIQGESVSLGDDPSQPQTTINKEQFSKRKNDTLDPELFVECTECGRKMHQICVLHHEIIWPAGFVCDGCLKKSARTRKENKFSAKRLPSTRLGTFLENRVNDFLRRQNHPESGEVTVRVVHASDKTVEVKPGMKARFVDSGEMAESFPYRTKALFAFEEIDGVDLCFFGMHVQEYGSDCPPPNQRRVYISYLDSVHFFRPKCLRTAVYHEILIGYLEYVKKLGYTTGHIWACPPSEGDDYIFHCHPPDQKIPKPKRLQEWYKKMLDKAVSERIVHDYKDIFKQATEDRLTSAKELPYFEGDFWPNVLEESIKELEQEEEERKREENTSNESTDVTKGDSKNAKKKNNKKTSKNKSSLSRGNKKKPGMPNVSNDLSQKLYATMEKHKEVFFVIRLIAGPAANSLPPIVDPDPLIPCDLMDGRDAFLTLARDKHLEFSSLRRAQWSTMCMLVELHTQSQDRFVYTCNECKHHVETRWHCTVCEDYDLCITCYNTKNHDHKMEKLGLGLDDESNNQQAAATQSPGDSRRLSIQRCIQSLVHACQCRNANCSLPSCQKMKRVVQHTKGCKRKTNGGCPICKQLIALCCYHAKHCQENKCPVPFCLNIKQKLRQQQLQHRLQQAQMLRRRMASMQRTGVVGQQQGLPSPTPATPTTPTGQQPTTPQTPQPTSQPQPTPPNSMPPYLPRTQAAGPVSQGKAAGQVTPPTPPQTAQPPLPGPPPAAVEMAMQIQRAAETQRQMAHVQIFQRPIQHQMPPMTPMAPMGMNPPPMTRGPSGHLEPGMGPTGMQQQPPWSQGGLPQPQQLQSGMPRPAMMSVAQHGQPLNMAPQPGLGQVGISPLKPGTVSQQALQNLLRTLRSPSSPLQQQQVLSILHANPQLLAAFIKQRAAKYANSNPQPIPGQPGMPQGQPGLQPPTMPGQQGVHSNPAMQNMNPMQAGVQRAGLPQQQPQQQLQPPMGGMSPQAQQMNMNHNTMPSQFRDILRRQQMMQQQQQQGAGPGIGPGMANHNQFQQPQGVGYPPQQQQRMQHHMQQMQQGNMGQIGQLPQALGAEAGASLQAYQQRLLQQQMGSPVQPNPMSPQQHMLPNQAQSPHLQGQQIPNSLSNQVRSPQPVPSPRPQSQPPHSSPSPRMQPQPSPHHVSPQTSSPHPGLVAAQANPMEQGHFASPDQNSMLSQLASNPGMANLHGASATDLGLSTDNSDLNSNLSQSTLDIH

Structure (SMILES): CNC(=O)Nc1ccc2c(c1)CC[C@@]21OC(=O)N(CC(=O)N2C(C)CC[C@H]2c2cc(F)c(F)c(F)c2)C1=O (stereo in doubt) [Example 205, 1-((R)-3′-(2-((2S,5R)-2-(3,4,5-trifluorophenyl)-5-methylpyrrolidin-1-yl)-2-oxoethyl)-2′,4′-dioxo-2,3-dihydrospiro[indene-1,5′-oxazolidine]-5-yl)-3-methylurea]
- IC50 (histone acetylase p300): 1.6 nM
- IC50 (CWR22RV1 cells; [1]): ≤ 500 nM
- IC50 (CWR22RV1 cells; [2]): ≤ 500 nM
- IC50 (VCAP): ≤ 500 nM
- IC50 (LNCAP-AR): ≤ 500 nM
- IC50 (LNCAP): ≤ 500 nM
- IC50 (MOLT-4): ≤ 500 nM
- IC50 (HEL): 500 to 2000 nM
- IC50 (OCI-AML3): ≤ 500 nM
- IC50 (RL): ≤ 500 nM
- IC50 (MLMA): ≤ 500 nM
- IC50 (BT-474): ≤ 500 nM
- IC50 (DU4475): 500 to 2000 nM
- IC50 (KMS-20): ≤ 500 nM
- IC50 (NCI-H929): ≤ 500 nM
- IC50 (OPM-2): ≤ 500 nM

Structure (SMILES): CNC(=O)Nc1ccc2c(c1)CC[C@@]21OC(=O)N(CC(=O)N2[C@@H](C)CC[C@H]2c2ccc(F)c(F)c2)C1=O [Example 201]
- IC50 (histone acetylase p300): 1.6 nM
- IC50 (CWR22RV1 cells; [1]): ≤ 500 nM
- IC50 (CWR22RV1 cells; [2]): ≤ 500 nM
- IC50 (VCAP): ≤ 500 nM
- IC50 (LNCAP-AR): ≤ 500 nM
- IC50 (LNCAP): ≤ 500 nM
- IC50 (MOLT-4): ≤ 500 nM
- IC50 (HEL): 500 to 2000 nM
- IC50 (OCI-AML3): ≤ 500 nM
- IC50 (RL): ≤ 500 nM
- IC50 (MLMA): ≤ 500 nM
- IC50 (BT-474): ≤ 500 nM
- IC50 (DU4475): 500 to 2000 nM
- IC50 (KMS-20): ≤ 500 nM
- IC50 (NCI-H929): ≤ 500 nM
- IC50 (OPM-2): ≤ 500 nM

Structure (SMILES): CNC(=O)Nc1cc2c(cc1F)[C@@]1(CC2)OC(=O)N(CC(=O)N2[C@@H](C)CC[C@H]2c2ccc(F)c(F)c2)C1=O [Example 389, 1-((R)-3′-(2-((2S,5S)-2-(3,4-difluorophenyl)-5-methylpyrrolidin-1-yl)-2-oxoethyl)-6-fluoro-2′,4′-dioxo-2,3-dihydrospiro[indene-1,5′-oxazolidine]-5-yl)-3-methylurea]
- IC50 (histone acetylase p300): 1.9 nM
- IC50 (CWR22RV1 cells; [1]): ≤ 500 nM
- IC50 (CWR22RV1 cells; [2]): ≤ 500 nM
- IC50 (VCAP): ≤ 500 nM
- IC50 (LNCAP-AR): ≤ 500 nM
- IC50 (LNCAP): ≤ 500 nM
- IC50 (MOLT-4): ≤ 500 nM
- IC50 (HEL): ≤ 500 nM
- IC50 (OCI-AML3): ≤ 500 nM
- IC50 (RL): ≤ 500 nM
- IC50 (MLMA): ≤ 500 nM
- IC50 (BT-474): ≤ 500 nM
- IC50 (DU4475): 500 to 2000 nM
- IC50 (KMS-20): ≤ 500 nM
- IC50 (NCI-H929): ≤ 500 nM
- IC50 (OPM-2): ≤ 500 nM
